Data on 18 compounds can be found in patent publication EP3892734B1, “SCREENING METHODS AND THERAPEUTIC APPLICATIONS BASED ON BACTERIAL MOTILITY INHIBITION” (Ludwig-Maximilians-Universität München, priority 2020, dated 2021).

Converted amounts (≈) assume the structure as drawn. “And” between values parts separate entries of the source, which are not always exact repeats. Identical values can stand only once. “Also recorded” adds a separate entry of the source. Like-named read-outs stand apart in the source and are kept apart here.

Experiment [1] deals with H. pylori flaA-luciferase reporter strain N6. In words: microbe, parasite or virus in culture. It is filed as cell-based, Helicobacter pylori. As to conditions: for inhibitory activity in luciferase reporter assay: result in words; for Weak activity (% of non-inhibited control): flaA-luciferase reporter strain N6, IC50 not determined. The source says: The H. pylori flaA promoter was fused with a luciferase operon (luxAB) from Vibrio harveyi in a H. pylori suicide plasmid (Niehus, Ye, Suerbaum, & Josenhans, 2002). The flaA reporter fusion was recombined into the H. pylori chromosome and the resulting strain tested to be strongly luminescence positive. The reporter strain (N6 flaA-lux4B) activated luminescence to about 40,000 to 60,000 counts per second using luciferase substrate at an OD600 of 0.8 (mid-log phase) in liquid culture. The negative control value of a non-reporter strain or reporter strain without luminescence substrate was close to zero. […] The Z-Factor (Zhang et al., 1999) determined for the assay with various bacterial inhibitors measured in quadruplicates or triplicates was routinely between 0.6 and 0.7, with a confidence interval of 95%.
H. pylori luminescence reporter strains were passaged on blood agar plates less than 22 hours prior to the start of the experiment. The passage number for these assays was not higher than five to preserve the strain's properties and genetic stability. Luciferase reaction buffer was prepared as follows: 50 mM disodium phosphate (Na2HPO4) and 2% BSA were dissolved in HPLC water, filter sterilized, aliquoted and frozen at - 20°C.
Bacteria were harvested in brain-heart infusion medium (BHI, 3% yeast extract with 5% horse serum added) and adjusted to an OD600 of 0.8 at room temperature. 50 µl of the bacterial suspension were added per well of a 96 well plate (non-binding, Greiner Bio-One 655901). 2 µl of each of the test compounds (provided as a 10 mM DMSO solution) were added to the sample wells. The same amount of pure, diluted DMSO was added to the control wells for a concentration of a maximum of 4% DMSO per well, since higher concentrations will interfere with metabolic functions of H. pylori and cause false negative results. The microwell plate was incubated inside a sterile sealed PM Gas Bag (BIOLOG #3032) together with a CampyGen Compact pack (Oxoid) to generate microaerobic conditions at 37°C and with shaking at 175 rpm for 4 h.
Shortly before taking the measurement, the luciferase substrate was prepared by diluting the luminescence substrate decanal (10% stock, Sigma Aldrich) at a 1 :2,000 dilution in luciferase reaction buffer. 60 µl of the substrate were added per well of a white 96 microwell plate (Thermo Scientific #236105) without the lid.
For the final luciferase measurement, 10 µl of bacterial solution were transferred with the epMotion 96 (Eppendorf) simultaneously to the wells containing the luciferase substrate and incubated on a microwell plate shaker for 10 s to lyse the bacteria. The measurements were recorded with a Perkin Elmer Victor 3/WNallac 1420 plate reader (luminometry, measurement time: 0.5 sec) and integrated to counts per sec. For the background measurement, 10 µl sterile medium containing 4% DMSO was added to the wells. For each measurement, at least four luciferase reporter positive control wells (without inhibitory compound) and four negative control wells (background without bacteria) were run on the same day and under the same assay conditions in parallel.
For orientation: Reporter assays use an easily measured gene product as a stand-in for the process of interest.

The subject of experiment [2] is H. pylori N6. Put plainly: vitality / metabolic (respiratory inhibition) counter-screen. It is filed as cell-based, Helicobacter pylori. Conditions: > 100% indicates no inhibition. Background: The purpose of a counterscreen is to sort out artefacts and off-target activity.
For experiment [3], the system named is H. pylori. Put plainly: therapeutic treatment in chronic H. pylori mouse infection model (cfu counts, cagL PCR). The format is in vivo, C57B/L6 mice. Here is the method:
6-8 weeks old specific pathogen-free C57B/L6 mice were obtained from Charles River Laboratories. They were acclimatized to the new surroundings for one week before starting the assays. For the whole duration of the experiment, mice had access to sterile chow and sterile water ad libitum. In week one of the experiment, H. pylori was administered at 3×10^8 bacteria per mouse per inoculum (100 µl) on two days with one day of break in between. The proof-of-principle treatment was started two weeks after the end of the inoculation week, assuming a stable infection at this time point. The mice were treated in separate groups (8-14 animals per group), as outlined in the results, with compound(s), antibiotic (metronidazole at 14.3 mg/kg/day), a combination of both antibiotic and compound (for concentrations, see Results), or mock-treated once daily over seven consecutive days by intra-gastric gavage. After the treatment week, the mice were kept for another two weeks under normal housing and feeding conditions with sterilized chow and sterile water ad libitum. At the end of the assay period (week seven), the mice were necropsied by cervical dislocation under CO2 anesthesia. The animal experiments were authorized under German federal law by the LAVES (Lower Saxony Government Authority).
Then, BL2 was further tested for therapeutic efficacy in a mouse model of chronic H. pylori infection (Fig. 5). Six groups of mice (10 mice per group in each of the four infected and/or treated groups, and six mice in both of the control groups) were established in this mouse treatment trial. For the treatment groups, mice were infected in week one (using ca. 3×10^8 bacteria per animal; Methods), and the chronic infection was manifested for two more weeks. The once-daily treatment (intragastric gavage) started in week four on seven consecutive days. For the treatment groups, three H. pylori-infected groups were evaluated in parallel. One dose of treatment was given daily.
Group one was treated with metronidazole (14.3 mg/kg/day) only, an established anti-H. pylori antibiotic. The antibiotic concentration corresponds to concentrations routinely used in human treatment. Group two was treated with metronidazole (dosed at 14.3 mg/kg/day) and BL2 (10 mg/kg/day) in combination, and group three received BL2 (10 mg/kg/day) only. In addition, one infected and mock-treated group was kept as positive control, and two mock-infected groups were set aside, one for administering BL2 only (10 mg/kg/day; microbiota compound control) and one which was mock-infected and mock-treated (microbiota null control).
The read-out of successful treatment was the reduction of colony-forming units (cfus) of bacteria in infected and treated mice, over infected, non-treated, mice, at the end of the experiment. […] All mice in the infected positive control group were colonized (both cfu counts and PCR-positive), although the cfu counts in three positive animals were rather low.

[4] abbreviates: Helicobacter pylori, H. pylori flaA-luciferase reporter strain N6, Table 6.
Where [5] appears, read: H. pylori flaA-luciferase reporter strain N6, Table 6.

The term IC50 denotes the point on the concentration scale where inhibition reaches its midpoint.

Regarding `Cn1c(CSC(=N)N)c(Br)c(=O)n1-c1ccccc1` [DJ-1, (4-bromo-2-methyl-5-oxo-1-phenyl-2,5-dihydro-1H-pyrazol-3-yl)methyl carbamimidothioate], in experiment [1] (H. pylori screen), the “Luciferase assay (% of control)” value is 1,4 % of control. The IC50 is less than 4.5 µg/mL in experiment [1] (setting [4]); 3.05 µg/mL and 10.3 µM in experiment [1] (Helicobacter pylori, read-out: IC50 (luciferase assay), luciferase flagellar reporter assay, Table 3). Moreover, in experiment [2], the “Metabolic assay (% of control)” value is given as 107,7 % of control.

In turn, `Cn1c(CS)c(Br)c(=O)n1-c1ccccc1` [DJ-2, 4-bromo-5-(mercaptomethyl)-1-methyl-2-phenyl-1,2-dihydro-3H-pyrazol-3-one] showed an IC50 in experiment [1] (setting [5]) of 0.44 µg/mL (≈ 1.47 µM).

As for `Cn1c(CSCCO)c(Br)c(=O)n1-c1ccccc1` [DJ-3, 4-bromo-5-(((2-hydroxyethyl)thio)methyl)-1-methyl-2-phenyl-1,2-dihydro-3H-pyrazol-3-one], the IC50 entry in experiment [1] (setting [5]) is recorded as “No IC50”. Also, the “inhibitory activity in luciferase reporter assay” value (from here on “inhibitory activity”) in experiment [1] is reported as “No inhibitory activity was detectable”.

For the compound `Cn1c(CN)c(Br)c(=O)n1-c1ccccc1` [DJ-4, 5-(aminomethyl)-4-bromo-1-methyl-2-phenyl-1,2-dihydro-3H-pyrazol-3-one], in experiment [1] (setting [5]), the IC50 entry was “No IC50”. The “inhibitory activity” value in experiment [1] was “No inhibitory activity was detectable”.

`Cc1ccc(-n2c(=O)c(Br)c(CSC(=N)N)n2C)cc1` [DJ-5, (4-bromo-2-methyl-5-oxo-1-(p-tolyl)-2,5-dihydro-1H-pyrazol-3-yl)methyl carbamimidothioate] displayed an IC50 in experiment [1] (setting [4]) of less than 4.5 µg/mL.

As for `Cc1cc(C)cc(-n2c(=O)c(Br)c(CSC(=N)N)n2C)c1` [DJ-6, (4-bromo-1-(3',5'-dimethylphenyl)-2-methyl-5-oxo-2,5-dihydro-1H-pyrazol-3-yl)methyl carbamimidothioate], the IC50 in experiment [1] (setting [4]) was less than 4.5 µg/mL.

The compound `CC(C)c1ccc(-n2c(=O)c(Br)c(CSC(=N)N)n2C)cc1` [DJ-7, (4-bromo-1-(4'-isopropylphenyl)-2-methyl-5-oxo-2,5-dihydro-1H-pyrazol-3-vl)methyl carbamimidothioate] returned an IC50 in experiment [1] (setting [4]) of less than 4.5 µg/mL.

Regarding `Cn1c(CSC(=N)N)c(Br)c(=O)n1-c1ccc(-c2ccccc2)cc1` [DJ-8, (1-([1',1"-biphenyl]-4'-yl)-4-bromo-2-methyl-5-oxo-2,5-dihydro-1H-pyrazol-3-yl)methyl carbamimidothioate], the IC50 in experiment [1] (setting [4]) was less than 4.5 µg/mL.

Take `Cn1c(CSC(=N)N)c(Br)c(=O)n1-c1ccc(Cl)cc1` [DJ-9, (4-bromo-1-(4'-chlorophenyl)-2-methyl-5-oxo-2,5-dihydro-1H-pyrazol-3-vl)methyl carbamimidothioate]: the IC50 in experiment [1] (setting [4]) is less than 4.5 µg/mL.

`Cn1c(CSC(=N)N)c(Br)c(=O)n1-c1ccc(C(F)(F)F)cc1` [DJ-10, (4-bromo-2-methyl-5-oxo-1-(4'-(trifluoromethyl)phenyl)-2,5-dihvdro-1H-pyrazol-3-yl)methyl carbamimidothioate] registered a half-inhibitory concentration (IC50) in experiment [1] (setting [4]) of 10.8 µg/mL (≈ 26.5 µM).

`CCn1c(CSC(=N)N)c(Br)c(=O)n1-c1ccccc1` [DJ-11] showed an IC50 in experiment [1] (setting [4]) of 10.6 µg/mL (≈ 29.7 µM).

In experiment [1] (setting [4]), `CCn1c(CS)c(Br)c(=O)n1-c1ccccc1` [DJ-12] registered an IC50 of less than 4.5 µg/mL.

For `Cn1c(CSC(=N)N)c(Br)c(=O)n1-c1ccccn1` [DJ-13], in experiment [1], the “Weak activity (% of non-inhibited control)” value is reported as “Weak activity (+/- 50 % of non-inhibited control) (IC50 not determined)” and the “inhibitory activity” value was “detectable yet weaker inhibitory activity”.

As for `Cc1ccc(-n2c(=O)c(Br)c(CSCc3c(Br)c(=O)n(-c4ccc(C)cc4)n3C)n2C)cc1` [DJ-14, 5,5'-(thiobis(methylene))bis(4-bromo-1-methyl-2-(p-tolyl)-1,2-dihydro-3H-pyrazol-3-one)], in experiment [1], the “Weak activity (% of non-inhibited control)” value was “Weak activity (+/- 90 % of control) (IC50 not determined)” and the “inhibitory activity” value is “detectable yet weaker inhibitory activity”.

With `CC1(C)S[C@@H]2[C@H](NC(=O)[C@H](N)c3ccccc3)C(=O)N2[C@H]1C(=O)O` [ampicillin, reference compound], in experiment [1], the “inhibitory activity” value is “did not alter the readings in the luciferase reporter assay”.

As to `Cc1ncc([N+](=O)[O-])n1CCO` [metronidazole, reference compound], in experiment [3] (BL2 10 mg/kg/day, metronidazole 14.3 mg/kg/day, once daily, 7 days, intragastric gavage, versus infected control), the “reduction of colony-forming units (cfus) / bacterial loads in stomach” value is listed as “significantly reduced bacterial counts; also recorded: left no bacterial counts”. The “gene-specific (cagL) PCR signal in stomach homogenates” value in experiment [3] (two weeks post-treatment) is listed as “strong residual bacterial load; also recorded: all mice still had detectable specific bacterial (PCR) signal; also recorded: still readily detectable by PCR”.

With `C=C(C)[C@H]1Cc2c(ccc3c2O[C@@H]2COc4cc(OC)c(OC)cc4[C@@H]2C3=O)O1` [rotenone, reference compound], in experiment [1], the “inhibitory activity” value is on record as “inhibited the luminescence reporter activity”.

Regarding “carbonyl cyanide m-chlorophenyl hydrazine [CCCP, reference compound]”, the “inhibitory activity” value in experiment [1] was “inhibited the luminescence reporter activity”.
